Consider four compounds from PMC7827406, “Structure–Activity Relationship (SAR) Study of Spautin-1 to Entail the Discovery of Novel NEK4 Inhibitors” (International Journal of Molecular Sciences, 2021).

Holding throughout (assay): biochemical
Common to all, as to set-up: Eurofins KinaseProfiler full panel at Km ATP, residual kinase activity (%) relative to DMSO

Test [1] deals with CDK9/cyclin T1(h) (Homo sapiens, UniProt P50750). The essentials: (§1)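 Radiometric kinase activity assays were run with ATP at Km and compounds at 10 µM, and remaining activity (%) was reported. A separate competitive binding screen measured DNA-tagged kinase displaced from immobilized active-site ligands by qPCR, giving percent kinase still bound at 10 µM compound in DMSO.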
In test [2] the target is T1, MARK4(h) (Homo sapiens, UniProt Q96L34).
T1 sequence (Q96L34 1-752): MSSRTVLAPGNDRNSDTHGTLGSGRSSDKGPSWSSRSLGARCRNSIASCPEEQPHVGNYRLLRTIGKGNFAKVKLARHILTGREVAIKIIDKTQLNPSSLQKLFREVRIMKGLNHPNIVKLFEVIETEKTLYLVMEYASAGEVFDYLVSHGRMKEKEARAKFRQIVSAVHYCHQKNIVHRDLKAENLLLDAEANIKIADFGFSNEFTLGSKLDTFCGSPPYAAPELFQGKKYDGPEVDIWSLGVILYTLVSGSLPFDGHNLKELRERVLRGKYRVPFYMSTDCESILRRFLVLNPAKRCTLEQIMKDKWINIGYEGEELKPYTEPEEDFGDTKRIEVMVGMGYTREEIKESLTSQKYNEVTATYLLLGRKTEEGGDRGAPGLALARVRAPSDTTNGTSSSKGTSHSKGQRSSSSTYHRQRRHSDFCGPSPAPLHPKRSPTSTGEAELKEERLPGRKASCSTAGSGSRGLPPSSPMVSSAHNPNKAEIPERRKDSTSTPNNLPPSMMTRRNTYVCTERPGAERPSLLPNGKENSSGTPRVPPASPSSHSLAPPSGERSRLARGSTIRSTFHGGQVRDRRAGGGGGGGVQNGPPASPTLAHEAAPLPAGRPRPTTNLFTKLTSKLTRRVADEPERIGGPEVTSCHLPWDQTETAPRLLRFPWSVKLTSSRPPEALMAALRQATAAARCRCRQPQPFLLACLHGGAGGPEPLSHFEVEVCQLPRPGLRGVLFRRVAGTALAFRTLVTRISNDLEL
In outline: as §1

For test [3], the target named is T2, PI3KC2g(h) (Homo sapiens, UniProt O75747).
T2 construct: gene PIK3C2G
T2 sequence (O75747 1-1486): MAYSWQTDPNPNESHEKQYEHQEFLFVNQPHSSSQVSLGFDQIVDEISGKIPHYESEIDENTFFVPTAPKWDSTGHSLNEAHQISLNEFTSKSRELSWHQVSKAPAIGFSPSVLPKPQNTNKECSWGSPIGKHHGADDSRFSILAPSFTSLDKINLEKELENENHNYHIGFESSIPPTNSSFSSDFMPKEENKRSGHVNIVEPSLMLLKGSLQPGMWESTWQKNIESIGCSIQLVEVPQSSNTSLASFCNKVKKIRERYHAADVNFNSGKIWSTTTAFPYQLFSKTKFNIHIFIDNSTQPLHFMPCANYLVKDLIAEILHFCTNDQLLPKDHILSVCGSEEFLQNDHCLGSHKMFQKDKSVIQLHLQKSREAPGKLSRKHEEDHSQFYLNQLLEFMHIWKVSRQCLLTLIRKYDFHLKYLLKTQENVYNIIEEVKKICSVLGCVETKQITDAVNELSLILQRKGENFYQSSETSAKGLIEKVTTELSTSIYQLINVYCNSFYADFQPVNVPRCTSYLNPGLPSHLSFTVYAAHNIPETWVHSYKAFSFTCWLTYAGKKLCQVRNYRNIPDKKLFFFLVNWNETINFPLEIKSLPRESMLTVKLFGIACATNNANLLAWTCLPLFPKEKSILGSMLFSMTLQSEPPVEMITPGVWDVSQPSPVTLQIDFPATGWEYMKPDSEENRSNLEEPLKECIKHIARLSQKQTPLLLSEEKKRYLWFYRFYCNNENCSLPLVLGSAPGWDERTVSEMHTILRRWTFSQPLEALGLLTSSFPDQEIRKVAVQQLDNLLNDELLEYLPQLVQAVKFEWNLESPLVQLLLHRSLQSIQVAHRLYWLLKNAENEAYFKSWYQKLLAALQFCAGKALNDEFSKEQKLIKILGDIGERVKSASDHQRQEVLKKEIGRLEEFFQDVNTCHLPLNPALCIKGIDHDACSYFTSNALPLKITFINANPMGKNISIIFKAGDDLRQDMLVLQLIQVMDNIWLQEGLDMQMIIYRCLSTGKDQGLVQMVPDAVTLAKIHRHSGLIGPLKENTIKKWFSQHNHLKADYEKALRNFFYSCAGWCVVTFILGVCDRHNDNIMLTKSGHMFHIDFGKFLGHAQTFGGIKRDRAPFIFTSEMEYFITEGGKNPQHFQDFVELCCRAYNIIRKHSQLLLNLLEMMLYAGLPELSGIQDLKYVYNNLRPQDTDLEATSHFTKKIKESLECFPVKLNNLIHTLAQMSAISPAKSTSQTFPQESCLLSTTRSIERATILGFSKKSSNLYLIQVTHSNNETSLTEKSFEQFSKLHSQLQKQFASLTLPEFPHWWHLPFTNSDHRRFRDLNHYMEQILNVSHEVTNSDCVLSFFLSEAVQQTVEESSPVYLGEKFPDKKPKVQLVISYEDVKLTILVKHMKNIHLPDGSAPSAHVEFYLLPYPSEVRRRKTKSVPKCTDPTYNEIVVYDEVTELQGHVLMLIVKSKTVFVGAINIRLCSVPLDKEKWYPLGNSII
In outline: as §1

Test [4] concerns the target SBK1(h) (Homo sapiens, UniProt Q52WX2). In outline:
as §1

Test [5] concerns the target SRPK1(h) (Homo sapiens, UniProt Q96SB4). In outline: as §1
Where [6] appears, read: read-out: Residual activity (%) Spautin-1 5aa.
[7] abbreviates: read-out: Residual activity (%) 5as.
Where [8] appears, read: read-out: Residual activity (%) 5at.
[9] abbreviates: read-out: Residual activity (%) 5ay.

Read-outs that look alike come from different tables or passages of the source.

Sequence of SRPK1(h) (Q96SB4 whole entry): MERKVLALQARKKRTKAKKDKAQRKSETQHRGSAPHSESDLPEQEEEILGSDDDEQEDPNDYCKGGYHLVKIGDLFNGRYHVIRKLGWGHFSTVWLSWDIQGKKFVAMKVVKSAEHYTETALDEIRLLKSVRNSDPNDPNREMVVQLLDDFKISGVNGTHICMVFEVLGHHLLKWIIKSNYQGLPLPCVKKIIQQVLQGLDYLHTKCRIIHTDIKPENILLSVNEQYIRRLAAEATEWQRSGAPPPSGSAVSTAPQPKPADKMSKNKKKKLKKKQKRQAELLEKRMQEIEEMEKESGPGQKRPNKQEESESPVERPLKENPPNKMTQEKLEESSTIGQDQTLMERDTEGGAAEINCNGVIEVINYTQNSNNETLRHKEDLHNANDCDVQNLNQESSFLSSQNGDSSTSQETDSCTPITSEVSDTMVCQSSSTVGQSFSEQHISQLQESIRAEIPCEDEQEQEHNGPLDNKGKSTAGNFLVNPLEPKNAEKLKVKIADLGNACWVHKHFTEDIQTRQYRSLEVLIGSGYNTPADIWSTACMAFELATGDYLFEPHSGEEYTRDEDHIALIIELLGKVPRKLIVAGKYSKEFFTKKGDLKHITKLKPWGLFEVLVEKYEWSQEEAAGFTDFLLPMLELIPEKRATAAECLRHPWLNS
Sequence of SBK1(h) (Q52WX2 whole entry): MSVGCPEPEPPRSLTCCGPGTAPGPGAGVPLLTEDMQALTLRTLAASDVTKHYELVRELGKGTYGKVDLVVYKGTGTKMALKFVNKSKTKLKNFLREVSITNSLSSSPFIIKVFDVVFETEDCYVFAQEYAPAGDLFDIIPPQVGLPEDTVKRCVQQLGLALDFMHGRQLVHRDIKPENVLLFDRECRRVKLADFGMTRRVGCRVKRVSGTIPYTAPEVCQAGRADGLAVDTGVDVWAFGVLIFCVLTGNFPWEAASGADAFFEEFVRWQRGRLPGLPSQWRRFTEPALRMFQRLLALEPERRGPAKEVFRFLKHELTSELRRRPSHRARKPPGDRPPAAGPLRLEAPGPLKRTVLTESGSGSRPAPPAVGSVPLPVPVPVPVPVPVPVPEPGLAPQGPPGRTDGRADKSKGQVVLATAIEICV
Sequence of CDK9/cyclin T1(h) (P50750 whole entry): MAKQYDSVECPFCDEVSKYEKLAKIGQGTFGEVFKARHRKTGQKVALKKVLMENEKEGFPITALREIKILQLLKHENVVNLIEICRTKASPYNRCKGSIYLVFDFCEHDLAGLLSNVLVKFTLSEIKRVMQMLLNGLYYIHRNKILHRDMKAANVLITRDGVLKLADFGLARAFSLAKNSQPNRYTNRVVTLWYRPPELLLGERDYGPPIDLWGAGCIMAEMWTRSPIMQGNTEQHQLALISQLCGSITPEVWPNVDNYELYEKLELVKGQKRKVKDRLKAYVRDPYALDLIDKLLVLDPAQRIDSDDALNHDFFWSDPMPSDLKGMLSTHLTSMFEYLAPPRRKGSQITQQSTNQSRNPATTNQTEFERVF
Sequence of CDK9/cyclin T1(h) (O60563 whole entry partner): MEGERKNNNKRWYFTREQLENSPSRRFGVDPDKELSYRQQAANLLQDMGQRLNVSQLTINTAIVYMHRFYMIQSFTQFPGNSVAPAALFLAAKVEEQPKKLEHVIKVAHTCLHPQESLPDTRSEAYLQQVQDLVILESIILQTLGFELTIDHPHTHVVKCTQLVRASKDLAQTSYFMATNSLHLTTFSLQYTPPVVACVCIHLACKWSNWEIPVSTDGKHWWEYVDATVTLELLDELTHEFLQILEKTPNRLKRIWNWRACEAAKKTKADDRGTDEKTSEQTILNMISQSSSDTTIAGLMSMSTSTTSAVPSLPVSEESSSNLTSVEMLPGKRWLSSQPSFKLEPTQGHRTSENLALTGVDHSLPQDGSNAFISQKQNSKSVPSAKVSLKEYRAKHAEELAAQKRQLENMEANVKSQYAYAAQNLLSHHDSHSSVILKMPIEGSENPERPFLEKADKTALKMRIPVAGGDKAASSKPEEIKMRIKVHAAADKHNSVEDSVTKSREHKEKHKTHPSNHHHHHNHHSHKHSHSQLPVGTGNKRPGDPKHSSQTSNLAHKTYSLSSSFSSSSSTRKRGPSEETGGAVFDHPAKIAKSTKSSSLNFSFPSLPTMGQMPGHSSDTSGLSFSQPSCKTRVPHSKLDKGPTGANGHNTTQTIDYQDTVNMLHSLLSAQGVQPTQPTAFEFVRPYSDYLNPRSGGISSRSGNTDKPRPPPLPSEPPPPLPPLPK

Turning to `Fc1ccc(CNc2ncnc3ccc(F)cc23)cc1` [5aa, 6-Fluoro-N-(4-fluorobenzyl)-4-Quinazolinamine], the remaining activity at 10 µM in test [1] (setting [6]) was 104%; in test [2] (setting [6]) it was 107%; in test [3] (setting [6]), 70%; in test [4] (setting [6]), 106%; in test [5] (setting [6]), 121%.
As for `Fc1ccc(CCNc2ncnc3ccc(F)cc23)cc1` [5as, 6-Fluoro-N-[2-(4-Fluorophenyl)Ethyl]-4-Quinazolinamine], the remaining activity at 10 µM in test [1] (setting [7]) stood at 93%; in test [2] (setting [7]), 104%; in test [3] (setting [7]), 57%; in test [4] (setting [7]) it was 95%; in test [5] (setting [7]), 112%.
For `Fc1ccc2ncnc(NCCc3ccc(Cl)cc3)c2c1` [5at, N-[2-(4-Chlorophenyl)Ethyl]-6-Fluoro-4-Quinazolinamine], the remaining activity at 10 µM in test [1] (setting [8]) was found to be 86%; in test [2] (setting [8]), 105%; in test [3] (setting [8]) it was 34%; in test [4] (setting [8]), 103%; in test [5] (setting [8]) it was 108%.
Regarding `COc1ccc2ncnc(Nc3cccc(F)c3)c2c1` [5ay, N-(3-Fluorophenyl)-6-Methoxy-4-Quinazolinamine], the remaining activity at 10 µM came out at 100% in test [1] (setting [9]); 100% in test [2] (setting [9]); 40% in test [3] (setting [9]); 83% in test [4] (setting [9]); 116% in test [5] (setting [9]).
